Reference: patent US11090391B2, “Protein nanocages with enhanced mucus penetration for targeted tissue and intracellular delivery” (The Johns Hopkins University, priority 2016, dated 2021)

Legend:
3LL cells [1] = experiment: Intracellular trafficking, confocal microscopy; format: cell-based, mouse; details: 2 hours after addition
[2] = system: 3LL-based tumor spheroids; experiment: Penetration of DOX formulations in tumor spheroids; format: cell-based, mouse; details: 10 μM DOX concentration
Method: (§1) Multicellular tumor spheroid models consisting of different cancer cell lines were prepared by modifying a previously reported protocol (Friedrich J, et al, Nature Protocols, 4:309-324 (2009)). Briefly, 50 μL DMEM medium containing 1.5% agarose (wt/vol) was plated onto each well of a 96-well microtiter plate under sterile conditions. After the agarose solidifies, the plates were stored at room temperature until use. For the penetration study, 5×10^3 cells were seeded onto the agarose-plated 96-well plates. After 4-5 days culture to obtain multicellular tumor spheroids (400-500 μm in diameter), the tumor spheroids were carefully transferred into glass bottom dishes. […] After the 2-hour incubation, the cells were observed using confocal microscopy with Z-stack imaging at ˜10 μm intervals. […] The 3D images of spheroids were reconstructed by ZEN microscopy software (Carl Zeiss). For analyzing the penetration distance, the radial intensity distribution profile was determined using a custom-made MATLAB code where αtumor is the radius of individual spheroids and r is the radial distance from the spheroid center (r/αtumor=0 and 1 indicate the center and edge of the tumor spheroid, respectively). […] Quantification analysis of signal intensity was performed with ImageJ software (NIH).
Multicellular tumor spheroids were prepared and post-treatment analyzed as described in Example 4.

[3] = system: 3LL cells stably expressing firefly luciferase (3LL-Luc); experiment: In vitro cytotoxicity, luciferase activity; format: cell-based, mouse; details: 24 hour treatment
Method: Cytotoxicity was evaluated by optical imaging of luciferase expression. 3LL cells stably expressing firefly luciferase (3LL-Luc) were treated with various concentrations of PEG-FTn-DOX and DOX for 24 hour. After adding a D-luciferin solution, the bioluminescence imaging was acquired by a Xenogen IVIS Spectrum optical imaging system (Caliper Life Sciences). The luciferase activity was quantified to determine IC50 by fitting the data with nonlinear regression using GraphPad Prism.

[4] = system: 3LL-Luc orthotopic proximal lung cancer; experiment: In vivo anti-cancer efficacy, orthotopic proximal lung cancer model; set-up: species or system mouse; details: single intratracheal dose 0.25 mg/kg
Excerpt: To evaluate the efficacy of PEG-FTn-DOX for treating lung airway cancer, an aggressive orthotopic mouse model was established of proximal lung cancer in inbred mice with intact host immunity. The model was established via intratracheal intubation of cancer cells into the tracheal and bronchial epithelium of lung airways (DuPage M, et al., Nature protocols, 4:1064-1072 (2009)), which was relevant to small cell lung cancer and squamous-cell lung cancer. Briefly, female C57BL/6 mice (6-8 weeks) were inoculated with 2.5×10^4 3 LL-Luc cells in 50 μL of DMEM medium via intratracheal intubation using a 22 G×1″ Safelet catheter (Exel International). Three days after the inoculation, bioluminescence signal in the lung was observed using a Xenogen IVIS Spectrum optical imaging system. […] The tumor growth was monitored at various time points using an IVIS imaging system and the bioluminescence signal in lung at different time points was quantitatively analyzed by the Living Image® (Caliper Life Sciences) software. The survival of mice was recorded daily, and data was analyzed by Kaplan-Meier survival curve.
The luciferase activity of 3LL-Luc was visualized and quantified by a Xenogen IVIS Spectrum optical imaging system. In brief, mice were anesthetized with 2% isoflurane in O2 and received intraperitoneal injection of D-luciferin solution in PBS at a dose of 150 mg/kg. Serial images were acquired between 5 and 20 minutes after the D-luciferin administration, and the bioluminescence signal intensity was quantified by the Living Image® software.

3LL cell spheroids = experiment: Penetration of Cy5-labeled FTn in multicellular tumor spheroids; format: cell-based, mouse; details: for distribution in spheroids (3D-reconstructed confocal images): 40 nM, 2-hour incubation; for mean fluorescence signal intensity in spheroids compared to FTn: FIG. 4A
Method: (§2) See detailed procedures as described in Example 4.
as §1

3LL cells [5] = experiment: Cell uptake / TfR 1-dependent binding of Cy5-labeled FTn formulations, flow cytometry; format: cell-based, mouse
Method: as §2
Subsequently, cells were incubated with Vibrant® DiO cell labeling solution (Life technologies) for 10 minutes following manufacturer's protocol (sub-cellular localization at cell membranes & lipids). After three times washing with PBS, the cells were fixed with Z-fix solution (Anatech) for 15 min, followed by 1.5 μg/mL DAPI staining at room temperature.
(§3) After washing with cold PBS, cells were analyzed using an AccuriC6 flow cytometer (BD Biosciences). […] The data was fitted to a binding curve via non-linear regression method using GraphPad Prism (GraphPad Software).

[6] = PEG surface density, fluorometric determination; format: physicochemical; details: for PEG2k density: reassembled FTn by % PEGylated protein
Method: The solution was placed on a rotary incubator for 4 hours and then concentrated by centrifugation (Amicon Ultra-0.5 mL 30 K MWCO; Millipore). […] The density was fluorometrically determined (Suk J S, et al., Advanced Drug Delivery Reviews, 99(Pt A):28-51, Epub 2015).
The ratio [Γ/SA] of total unconstrained PEG surface coverage area [Γ] to total particle surface area [SA] determines the surface PEG conformation: low-density mushroom and high-density brush regimes when [Γ/SA]<1 and [Γ/SA]≥1, respectively (Xu Q, et al., ACS Nano, 9. 9217-9227 (2015); Auguste D T, Biomaterials, 27, 2599-2608 (2006)). Briefly, the surface area occupied by one unconstrained PEG chain was calculated by random-walk statistics and given by a sphere of diameter ξ: ξ=0.76 m^1/2[Å], where m is MW of PEG chain, and the surface area occupied by one PEG molecule can be determined by π(ξ/2)^2. Thus, the surface area occupied by unconstrained PEG of MWs 10, 5 and 2 kDa is 45, 23 and 9 nm^2, respectively. The total unconstrained PEG surface area coverage [Γ] was then calculated by multiplying the area occupied at the surface per PEG chain by the total number of PEG chains per protein nanocage.

[7] = Physicochemical properties (hydrodynamic diameter, ζ-potential, drug loading)
Method: The DOX conjugated PEG-FTn is denoted as FTn/FTn-PEG2k/DOX. […] The mixture was incubated for 1 hour and 1.5 mg EDC was added to activate a carboxyl group of each DOX-linker conjugate. The resultant compounds were analyzed using high-performance liquid chromatography (HPLC, Varian Inc.) equipped with a C18 reverse phase column. […] The final product was extensively dialyzed (10 kDa MWCO; Thermo Scientific) and purified with a PD-10 column.

[8] = system: orthotopic 3LL lung cancer; details: mouse, in vivo
Method: The mice were sacrificed 2 hour post-administration, and the entire lungs were isolated and frozen slices were prepared.

[9] = system: TfR 1-positive lung cancer cells; experiment: Uptake of FTn/FTn-PEG2k by panel of cell lines; format: cell-based; details: C2C12, NCI-H69, H69-AR, SW210.5, A549, NCI-H460, NCI-H1975, PC 9
Method: as §3
TfR 1 expression was determined by western blot analysis with anti-TfR 1 antibody (Ab) (BD Pharmingen) in various cell lines in vitro, including mouse Lewis lung carcinoma (3LL) cells, mouse myoblast (C2C12, a TfR 1-negative cell line as the negative control), human small cell lung cancer cells (NCI-H69, H69-AR, and SW210.5), and human non-small cell lung cancer cells (A549, NCI-H460, NCI-H1975, and PC 9). The expression was also determined when 3LL, A549, PC9, and SW210.5 cells were incubated in 20% oxygen and 1% oxygen (i.e. hypoxic condition).

[10] = Airway distribution after intranasal administration; format: in vivo, mouse; details: for retention in lung airways (overall fluorescence intensity): compared to non-PEGylated FTn; for coverage of mouse tracheal surfaces: intranasal, 10 minutes after administration
Excerpt: All experiments were approved by the Institutional Animal Care and Use Committee.
Female CF-1 mice (6-8 week) were anesthetized under continuous flow of isoflurane (2% in oxygen). […] Ten minutes after administration, mice were sacrificed and the entire lungs (including trachea) were removed and frozen in Tissue-Tek optimal cutting temperature compound (Sakura Finetek). Tracheas were sectioned on a Leica Cryostat (Leica Biosystems) with a section thickness of 10 μm. The sections were stained with Prolong Gold antifade with DAPI (Life technologies), and fluorescence images of the sections were obtained using a Zeiss confocal microscope. To quantify the particle distribution, the acquired images were analyzed by following an image-based analysis method that was previously reported (Mastorakos P, et al., Proc Nat Acad Sci USA, 112(28):8720-5 (2015)). Briefly, at least 10 fluorescence images at 10× magnification were taken for the lungs harvested from individual animals. The images were quantified with ImageJ software. An average coverage and total particles in airways were determined for each mouse, and then these values were averaged over a group of n=4 mice.

[11] = Colloidal stability by agarose gel electrophoresis (PBS, 10% human plasma); format: physicochemical; details: 0.5% agarose gel, 10% human plasma 1 hour 37° C.
Method: Nanocages reassembled in phosphate buffered saline (PBS) with varying % of PEGylated protein were analyzed by electrophoresis within a 0.5% agarose gel to determine any aggregation.

[12] = Hydrodynamic diameter by gel-filtration / size exclusion chromatography; format: physicochemical
Method: Briefly, the protein standards with known HD (Bio-Rad), including M1 (thyroglobulin; 669 kDa, 18.8 nm HD), M2 (γ-globulin; 158 kDa, 11.9 nm HD), M3 (ovalbumin; 44 kDa, 6.13 nm HD), M4 (myoglobin; 17 kDa, 3.83 nm HD) and M5 (vitamin B12; 1.35 kDa, 1.48 nm HD), were analyzed using GFC and subsequently a standard curve of HD vs retention time was established.

A549 = experiment: Cell uptake of FTn, flow cytometry; format: cell-based, human; details: TfR 1-mediated
Method: as §3

[13] = target: transferrin receptor 1 (TfR 1) on mouse Lewis lung carcinoma (3LL) cells (mouse) (UniProt Q62351)

With `COc1cccc2c1C(=O)c1c(O)c3c(c(O)c1C2=O)C[C@@](O)(C(=O)CO)C[C@@H]3O[C@H]1C[C@H](N)[C@H](O)[C@H](C)O1` [DOX, doxorubicin, reference compound] the “intracellular localization of DOX” value (3LL cells [1]) was “primarily localized in the cell nuclei”, the “distribution in spheroids (3D confocal images)” value [2] was “remained primarily at the periphery of the spheroids” and the IC50 [3] was 480 nM. It also gave a median survival [4] of 18 days.

With “FTn-Cy5: FTn labeled with fluorescent dye Cy5, ~23 dye molecules per FTn” the “penetration in presence of excess unlabeled FTn” value (3LL cell spheroids; 10-fold molar excess, 1 hour) was “reduced significantly” and the “uptake in the presence of anti-TfR 1 antibody” value (3LL cells [5]; 10-fold molar excess anti-TfR 1 Ab) was “significantly reduced uptake”.

With “FTn/FTn-PEG2k: hybrid nanocage formed with 50% ferritin and 50% PEGylated ferritin using PEG2k” the colocalization with lysosomes (3LL cells [1]) was “colocalized with lysosomes”, the PEG surface density ([6]; hybrid nanocage, fluorometric measurement) was ~0.24±0.03 PEG/nm^2 and the PEG2k density [6] was 0.21 #/nm^2. For the same compound, the Hydrodynamic diameter [7] was 13.6 ± 1.3 nm, the ζ-potential [7] was −4.1 ± 1.1 mV and the “localization in orthotopic lung cancer” value [8] was “found preferentially within the tumor tissue”. The “uptake by TfR 1-positive cells” value [9] was “efficiently taken up”, the “retention in lung airways (overall fluorescence intensity)” value [10] was “retained at higher levels” and the “coverage of mouse tracheal surfaces” value [10] was 77±8%. For the same compound, the “distribution in spheroids (3D-reconstructed confocal images)” value (3LL cell spheroids) was “uniformly distributed throughout the entire spheroids including the core”, the “mean fluorescence signal intensity in spheroids in presence of anti-TfR 1 Ab” value (3LL cell spheroids; 10-fold molar excess, 1 hour) was “significantly decreased” and the “mean fluorescence signal intensity in spheroids compared to FTn” value (3LL cell spheroids) was “indistinguishable”. The “tumor cell uptake compared to non-PEGylated FTn” value (3LL cells [5]; 3LL cells, 2 kDa PEG, non-PEGylated FTn = 100%) was “more than 80%”.

In the case of “FTn/FTn-PEG5k: hybrid FTn with 1:1 molar ratio of FTn and FTn conjugated with 5 kDa PEG”, the “retention in lung airways (overall fluorescence intensity)” value [10] is reported as “retained at higher levels”, the “coverage of mouse tracheal surfaces” value [10] is reported as 80±8% and the “distribution in spheroids (3D-reconstructed confocal images)” value (3LL cell spheroids) is reported as “primarily near the periphery of tumor spheroids”. The “mean fluorescence signal intensity in spheroids compared to FTn” value (3LL cell spheroids) was “significantly lower intensity”.

With “FTn/FTn-PEG10k: hybrid FTn with 1:1 molar ratio of FTn and FTn conjugated with 10 kDa PEG” the “coverage of mouse tracheal surfaces” value [10] was 74±8%, the “distribution in spheroids (3D-reconstructed confocal images)” value (3LL cell spheroids) was “primarily near the periphery of tumor spheroids” and the “mean fluorescence signal intensity in spheroids compared to FTn” value (3LL cell spheroids) was “significantly lower intensity”. The “uptake compared to the uptake of FTn” value (3LL cells [5]; FIG. 3C) was “significantly reduced”.

In the case of “FTn: ferritin heavy-chain nanocages self-assembled from recombinant human ferritin heavy chain, without PEG”, the “aggregation during electrophoresis (colloidal stability)” value [11] is reported as “aggregated and were stuck in the wells”, the PEG2k density [6] is reported as 0 #/nm^2 and the “diameter from size exclusion chromatography” value ([12]; pH 2.0, broad peak) is reported as 1.8-5.4 nm. The “diameter from size exclusion chromatography” value ([12]; pH 7.4, single peak) was 13.2 nm, the “uptake by A549” value (A549) was “taken up” and the “coverage of mouse tracheal surfaces” value [10] was 50±9%. For the same compound, the distribution in airways ([10]; mucus-covered large airways (trachea)) was “sparsely distributed in airways”, the “distribution in spheroids (3D-reconstructed confocal images)” value (3LL cell spheroids) was “uniformly distributed throughout the entire spheroids including the core” and the “mean fluorescence signal intensity in spheroids in presence of anti-TfR 1 Ab” value (3LL cell spheroids; 10-fold molar excess, 1 hour) was “significantly decreased”.

For “hybrid nanocage FTn/FTn-PEG2k (50% ferritin and 50% ferritin PEGylated with 2 kDa PEG) (ligand)”, the relative uptake (%) by 3LL cells, non-PEGylated FTn = 100% (% of the uptake of non-PEGylated FTn) [13] was > 80.
